From patent US6784184B2, “5-(arylsulfonyl)-,5-(arylsulfinyl), and 5-(arylsulfanyl)-thiazolidine-2,4-diones useful for inhibition of farnesyl-protein transferase” (Wyeth Holdings Corporation, priority 2001, dated 2004)

How the values were obtained:
FPTase (H-Ras substrate) = FPTase (H-Ras substrate) (UniProt P29702+P49355); assay: in vitro FTase Inhibition Assay, H-Ras as substrate for farnesylation; format: biochemical; conditions: H-Ras used as substrate for farnesylation
Experimental: (§1) The ability of the compounds of this invention to inhibit FPTase was evaluated in the standard pharmacological in vitro test procedures described below.
(§2) Methods—1. […] 2. Solution #1 is added to FPTase reaction in a volume of […]. 3. Standard reaction mix, […], contains 50 mM Tris (7.5), […], 3 mM MgCl2, 20 mM KCl, 5 mM DTT, 0.2% octyl-B-glucoside, 1% DMSO, […], 10 ng FPTase, and various concentrations of FPTase inhibitors. 4. Incubate for 30-90 min at […] 5. Stop reactions with TCA/SDS (6%/2%), hold at 4° C. for 45-60 min. 6. Filter by manifold or 96 well plate, wash filter 3-5× with TCA (6%). 7. Add scintillant to filters, measure ^3H-FPP incorporation into Ras protein.
(§3) (cpm from precipitated Ras with test compounds)−(background cpm)×100=% inhibition.
(§4) (cpm from precipitated Ras without test compounds)−(background cpm)

FPTase (K-Ras substrate) = FPTase (K-Ras substrate) (UniProt P29702+P49355); assay: in vitro FTase Inhibition Assay, K-Ras as substrate for farnesylation; format: biochemical; conditions: K-Ras used as substrate for farnesylation
Experimental: as §1, §2, §3, §4

SMILES	IC50 (FPTase (H-Ras substrate)) [nM]	IC50 (FPTase (K-Ras substrate)) [nM]
O=C1NC(=O)C(CCCC#Cc2ccc(Cl)cc2)(S(=O)(=O)c2ccc(Oc3ccccc3)cc2)S1 (stereo not shown) [Example 106, 5-[5-(4-Chlorophenyl)pent-4-ynyl]-5-(4-phenoxybenzenesulfonyl)-thiazolidine-2,4-dione]	230 to 250	1300 to 1700
O=C1NC(=O)C(CCCC#Cc2ccc(-n3cccc3)cc2)(S(=O)(=O)c2ccc(I)cc2)S1 (stereo not shown) [Example 162, 5-(4-Iodo-benzenesulfonyl)-5-[5-(4-pyrrol-1-yl-phenyl)pent-4-ynyl]-thiazolidine-2,4-dione]	1210	4000
O=C1NC(=O)C(CCCC#Cc2ccc([N+](=O)[O-])cc2)(S(=O)(=O)c2ccc(I)cc2)S1 (stereo not shown) [Example 120, 5-(4-Iodobenzenesulfonyl)-5-[5-(4-nitrophenyl)pent-4-ynyl]-thiazolidine-2,4-dione]	18 to 32	530 to 1000
Cc1ccc([N+](=O)[O-])cc1C#CCCCC1(S(=O)(=O)c2ccc(I)cc2)SC(=O)NC1=O (stereo not shown) [Example 125, 5-(4-Iodobenzenesulfonyl)-5-[5-(2-methyl-5-nitrophenyl)pent-4-ynyl]-thiazolidine-2,4-dione]	30	400
O=C1NC(=O)C(CCCC#Cc2ccc(Cl)cc2)(S(=O)(=O)c2ccc3ccccc3c2)S1 (stereo not shown) [Example 107, 5-[5-(4-Chlorophenyl)pent-4-ynyl]-5-(naphthalene-2-sulfonyl)-thiazolidine-2,4-dione]	180 to 200	620 to 700
COc1ccc(S(=O)(=O)C2(CCCC#Cc3cc(NC(=O)OCc4ccccc4)ccc3C)SC(=O)NC2=O)cc1 (stereo not shown) [Example 175, (3-{5-[5-(4-Methoxybenzenesulfonyl)-2,4-dioxothiazolidin-5-yl]pent-1-ynyl}-4-methylphenyl)carbamic Acid Benzyl Ester]	10 to 32	53 to 520
O=C1NC(=O)C(CCCC#Cc2ccc(Cl)cc2)(S(=O)(=O)c2cccc3ccccc23)S1 (stereo not shown) [Example 113, 5-[5-(4-Chlorophenyl)pent-4-ynyl]-5-(naphthalene-1-sulfonyl)-thiazolidine-2,4-dione]	50 to 60	750 to 800
COc1ccc(S(=O)(=O)C2(CCCC#Cc3cc(C)ccc3C)SC(=O)NC2=O)cc1 (stereo not shown) [Example 135, 5-[5-(2,5-Dimethylphenyl)pent-4-ynyl]-5-(4-methoxybenzenesulfonyl)-thiazolidine-2,4-dione]	20 to 32	1900 to 2100
COc1ccc(S(=O)(=O)C2(CCCC#Cc3cc(NC(=O)OC(C)(C)C)ccc3C)SC(=O)NC2=O)cc1 (single isomer, unassigned; less polar) [Example 222, Enantiomer of(3-{5-[5-(4-Methoxybenzenesulfonyl)-2,4-dioxothiazolidin-5-yl]pent-1-ynyl}-4-methylphenyl)carbamic Acid tert-Butyl Ester (less polar)]	3.3	33
Cc1ccc(S(=O)(=O)C2(CCCC#Cc3ccc(Cl)cc3)SC(=O)NC2=O)cc1 (stereo not shown) [Example 103, 5-[5-(4-Chlorophenyl)pent-4-ynyl]-5-(p-tolylsulfonyl)-thiazolidine-2,4-dione]	30 to 50	900 to 10000
COc1cccc(S(=O)(=O)C2(CCCC#Cc3cccs3)SC(=O)NC2=O)c1 (stereo not shown) [Example 164, 5-(3-Methoxybenzenesulfonyl)-5-(5-thiophen-2-yl-pent-4-ynyl)-thiazolidine-2,4-dione]	150	> 10000
Cc1ccc(S(=O)(=O)C2(CCC/C=C\c3ccc(Cl)cc3)SC(=O)NC2=O)cc1 (stereo not shown) [Example 217, 5-[(4Z)-5-(4-Chloro-phenyl)pent-4-enyl]-5-(toluene-4-sulfonyl)-thiazolidine-2,4-dione]	100	8500
COc1ccc(S(=O)(=O)C2(CCCC#Cc3cccc([N+](=O)[O-])c3)SC(=O)NC2=O)cc1 (stereo not shown) [Example 118, 5-(4-Methoxybenzenesulfonyl)-5-[5-(3-nitrophenyl)pent-4-ynyl]-thiazolidine-2,4-dione]	70	1900
COc1ccc(S(=O)(=O)C2(CCCC#Cc3cc([N+](=O)[O-])ccc3OC)SC(=O)NC2=O)cc1 (stereo not shown) [Example 123, 5-(4-Methoxybenzenesulfonyl)-5-[5-(2-methoxy-5-nitrophenyl)pent-4-ynyl]-thiazolidine-2,4-dione]	80 to 82	1000 to 2800
Cc1ccc(S(=O)(=O)C2(CCCC#Cc3ccc(C(C)(C)C)cc3)SC(=O)NC2=O)cc1 (stereo not shown) [Example 157, 5-[5-(4-tert-Butylphenyl)pent-4-ynyl]-5-(toluene-4-sulfonyl)-thiazolidine-2,4-dione]	270	5000
COc1ccc(S(=O)(=O)C2(CCCC#Cc3cc(NC(=O)OCc4ccc([N+](=O)[O-])cc4)ccc3C)SC(=O)N(C(=O)OCc3ccc([N+](=O)[O-])cc3)C2=O)cc1 (stereo not shown) [Example 227, 4-Nitrobenzyl 5-[(4-methoxyphenyl)sulfonyl]-5-{5-[2-methyl-5-({[(4-nitrobenzyl)oxy]carbonyl}amino)phenyl]pent-4-ynyl}-2,4-dioxo-1,3-thiazolidine-3-carboxylate]	7 to 10	210 to 400
COc1ccc(S(=O)(=O)C2(CCCC#Cc3cc(NC(=O)OCC(C)(C)C)ccc3C)SC(=O)NC2=O)cc1 (stereo not shown) [Example 180, (3-{5-[5-(4-Methoxybenzenesulfonyl)-2,4-dioxothiazolidin-5-yl]pent-1-ynyl}-4-methylphenyl)carbamic Acid Neopentyl Ester]	2 to 32	7 to 90
COc1ccc(S(=O)(=O)C2(CCCC#Cc3ccc(C#N)cc3)SC(=O)NC2=O)cc1 (stereo not shown) [Example 158, 4-{5-[5-(4-Methoxybenzenesulfonyl)-2,4-dioxo-thiazolidin-5-yl]pent-1-ynyl}benzonitrile]	150	3800
CCCCOc1ccc(S(=O)(=O)C2(CCCC#Cc3ccc(Cl)cc3)SC(=O)NC2=O)cc1 (stereo not shown) [Example 112, 5-(4-Butoxybenzenesulfonyl)-5-[5-(4-chlorophenyl)-pent-4-ynyl]-thiazolidine-2,4-dione]	590 to 600	1400 to 1500
COc1ccc(S(=O)(=O)C2(CCCC#Cc3ccc([N+](=O)[O-])cc3OC)SC(=O)NC2=O)cc1 (stereo not shown) [Example 132, 5-(4-Methoxybenzenesulfonyl)-5-[5-(2-methoxy-4-nitrophenyl)pent-4-ynyl]-thiazolidine-2,4-dione]	41 to 73	210 to 1000
COc1ccc(S(=O)(=O)C2(CCCC#Cc3ccc(Cl)cc3C)SC(=O)NC2=O)cc1 (stereo not shown) [Example 142, 5-[5-(4-Chloro-2-methylphenyl)pent-4-ynyl]-5-(4-methoxybenzene-sulfonyl)-thiazolidine-2,4-dione]	17 to 30	40 to 1000
Cc1cc([N+](=O)[O-])ccc1C#CCCCC1(S(=O)(=O)c2ccc(Oc3ccccc3)cc2)SC(=O)NC1=O (stereo not shown) [Example 129, 5-[5-(2-Methyl-4-nitrophenyl)pent-4-ynyl]-5-(4-phenoxybenzenesulfonyl)-thiazolidine-2,4-dione]	100	600 to 790
O=C1NC(=O)C(CCCC#Cc2ccc(Cl)cc2)(S(=O)(=O)c2ccc(F)cc2)S1 (stereo not shown) [Example 105, 5-[5-(4-Chlorophenyl)pent-4-ynyl]-5-(4-fluorobenzenesulfonyl)-thiazolidine-2,4-dione]	50 to 150	1500 to 1700
